# According to patent US20240425529A1, “BORIC ACID DERIVATIVE” (SHOUYAO HOLDINGS (BEIJING) CO., LTD., priority 2021, published 2024):
# Experiments:
# LMP7 = target: T1, LMP7 (Homo sapiens, UniProt P28062); test: Cytological inhibitory activity on LMP7 in MOLT-4 cells; format: cell-based; details: incubation for 2 hours with compound, read-out: Cytological activity data LMP7 Activity (MOLT-4Cell)
# T1 construct: using MOLT-4 cell lysate as the enzyme source of LMP7; endogenous in cells; host or cells: MOLT-4 (human acute lymphoblastic leukemia cells)
# Summary of the method: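 MOLT-4 cells pre-incubated 2 h with compound (8 concentrations, 5-fold dilution series from 2 mM DMSO stock, 5% FBS), washed and lysed. Lysate (20 ng/μl, 2× stock) reacted with Ac-ANW-AMC (100 μM, 2× stock) in 20 mM Tris pH 8.0, 0.5 mM EDTA, 1 h, 23 °C. Fluorescence at 345/445 nm; IC50 fitted.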
# β5 = target: T2, β5 (Homo sapiens, UniProt P28074); test: Enzymatic inhibitory activity on β5 (HEK-293 cell lysate, Ac-WLA-AMC substrate); format: biochemical; details: 1 hour pre-incubation
# T2 construct: using HEK-293 cell lysate as the enzyme source of D5; endogenous in cells; host or cells: HEK-293 (human embryonic kidney cells)
# Summary of the method: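 HEK-293 lysate (25 ng/μl final) preincubated 1 h at 23 °C with compound (9-point, 5-fold dilutions) in 20 mM Tris pH 8.0, 0.5 mM EDTA. Ac-WLA-AMC then added at 20 μM final for 2 h at 23 °C in the dark. AMC fluorescence read at Ex 345/Em 445 nm; IC50 from curve fit.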
SMILES,IC50 (LMP7) [nM],IC50 (β5) [nM]
"O=C(Nc1cnccn1)C(=O)N[C@@H](Cc1coc2ccccc12)B(O)O [Ex. 9, (R)-(2-(benzofuran-3-yl)-1-(2-oxo-2-(pyrazin-2-ylamino)acetamido)ethyl) boronic acid]",4.82,97.5
O=C(Nc1ccccn1)C(=O)N[C@@H](Cc1coc2ccccc12)B(O)O [Ex. 12],3.77,283
"O=C(Nc1nc2ccccc2s1)C(=O)N[C@@H](Cc1coc2ccccc12)B(O)O [Ex. 27, (R)-(2-(benzofuran-3-yl)-1-(2-oxo-2-((benzo[d]thiazol-2-yl)amino)acetamido)ethyl)boronic acid]",1.58,44.6
"Cc1cnc(NC(=O)C(=O)N[C@@H](Cc2coc3ccccc23)B(O)O)s1 [Ex. 32, (R)-(2-(benzofuran-3-yl)-1-(2-oxo-2-((5-methylthiazol-2-yl)amino)acetamido)ethyl)boronic acid]",1.72,62.9
"O=C(Nc1cc(Cl)ccn1)C(=O)N[C@@H](Cc1coc2ccccc12)B(O)O [Ex. 49, (R)-(2-(benzofuran-3-yl)-1-(2-oxo-2-((4-chloropyridin-2-yl)amino)acetamido)ethyl)boronic acid]",1.9,61.1
CC1CC(C)(C)OB([C@H](Cc2coc3ccccc23)NC(=O)C(=O)Nc2cnccn2)O1 (some centres unmarked) [Ex. 67],0.79,38.2
O=C1COB([C@H](Cc2coc3ccccc23)NC(=O)C(=O)Nc2cnccn2)O1 [Ex. 73],1.15,20.7
